Measured values reported in US20220267478A1, “PEPTIDE-LOADED CARRIER SYSTEMS AND USES THEREOF” (Academia Sinica, priority 2019, published 2022).
Converted amounts (≈) assume the structure as drawn. Ends that are not written are not given here.

Assays:
[1] = Aqueous solubility of peptides; conditions: for Solubility of unmodified peptide epitope: Table 1; for solubility / water solubility (in words): water
[2] = from Vasievich et al.; cited from earlier work
[3] = system: CD8 T cells; test: Trp2-specific CD8 T cell response in splenocytes of vaccinated mice (intracellular IFN-γ staining, flow cytometry); type: in vivo, C57BL/6 mice; conditions: peptide in nanoparticles with cdGMP; FIG. 10
Protocol: The immunogenicity of modified Trp2 peptides was tested by encapsulating them in the aqueous core of hollow thin-shell nanoparticles together with a fixed amount of stimulator of interferon genes (STING) agonist cyclic di-GMP (cdGMP) and injecting them into mice.
The modified Trp2 peptides were as follows: (i) D4-Trp2-D5, (ii) Trp2-D5, (iii) D5-Trp2, (iv) D2G3-Trp2-G3D2, (v) Trp2-G3D3, and (vi) D3G3-Trp2. As Trp2 itself cannot be incorporated into the aqueous core due to its hydrophobicity, a longer Trp2 peptide, namely, Trp2168-195 was encapsulated as a positive control.
Nanoparticles each containing an equivalent dose of one of the Trp2 peptides and cdGMP were prepared as described in Example 1 above and administered to C57BL/6 mice on day 0 and day 21 by subcutaneous injection at the base of the tail. On day 28, splenocytes of the vaccinated mice were isolated and examined for Trp2-specific CD8 T cell immune responses. Briefly, splenocytes from each mouse were challenged with Trp2 peptide and expression of IFN-γ in CD8 T cells was measured by intracellular cytokine staining and flow cytometry.

[4] = system: JAWSII dendritic cells; test: Dendritic cell surface marker expression after nanoparticle incubation and LPS stimulation; type: cell-based; conditions: FIG. 24
Protocol: FIG. 24 includes bar graphs showing the percentage of JAWSII dendritic cells expressing CD80 (upper left panel), CD86 (upper right panel), MHC I (bottom left panel) and MHC II (bottom right panel) assessed by flow cytometric analysis after the cells were co-cultured with the indicated aspirin/peptide formulations.
Dendritic cells were incubated with nanoparticles co-encapsulating adaptor modified OTII peptide and aspirin or adaptor-modified peptides only for 6 h, and then were stimulated with low dose of lipopolysaccharide (“LPS”). Dendritic cell phenotypes were observed 24 h later. See the experimental scheme in FIG. 23.

Compound: CC[C@H](C)[C@H](NC(=O)[C@@H](NC(=O)[C@@H](N)CO)[C@@H](C)CC)C(=O)N[C@@H](CC(N)=O)C(=O)N[C@@H](Cc1ccccc1)C(=O)N[C@@H](CCC(=O)O)C(=O)N[C@@H](CCCCN)C(=O)N[C@@H](CC(C)C)C(=O)O [OVA257-264, SIINFEKL]
- Solubility of unmodified peptide epitope [1]: hydrophilic
- solubility [1]: 2 mM (≈ 1930 µg/mL)

Compound: CC(C)C[C@H](NC(=O)[C@H](Cc1c[nH]c2ccccc12)NC(=O)[C@@H](NC(=O)[C@H](Cc1ccccc1)NC(=O)[C@H](Cc1ccccc1)NC(=O)[C@H](CC(=O)O)NC(=O)[C@H](Cc1ccc(O)cc1)NC(=O)[C@@H](NC(=O)[C@@H](N)CO)C(C)C)C(C)C)C(=O)O [Trp2, SVYDFFVWL]
- maximum solubility in water [2]: 0.06 mM

Compound: AQLANDVVL [Resp1, AQLANDVVL]
- Solubility of unmodified peptide epitope [1]: hydrophobic
- water solubility (in words) [1]: poorly soluble

Compound: ASMTNMELM [Adpgk, ASMTNMELM]
- Solubility of unmodified peptide epitope [1]: hydrophobic
- water solubility (in words) [1]: poorly soluble

Compound: DDDGGGSIINFEKL [D3G3-OVA]
- solubility [1]: 50 mM

Compound: DDDGGGSVYDFFVWL [D3G3-Trp2, DDDGGGSVYDFFVWL]
- solubility fold higher than the Trp2 peptide ([1]; H2O): over 500 fold
- solubility [1]: > 30 mM

Compound: FQDAYNAAGGHNAVF [Mycobacterium tuberculosis p25, FQDAYNAAGGHNAVF]
- Solubility of unmodified peptide epitope [1]: hydrophobic

Compound: ISQAVHAAHAEINEAGR [OT-II, ISQAVHAAHAEINEAGR]
- Solubility of unmodified peptide epitope [1]: hydrophilic

Compound: KVPRNQDWL [gp100, KVPRNQDWL]
- Solubility of unmodified peptide epitope [1]: hydrophilic

Compound: QVYSLIRPNENPAHK [influenza virus nucleoprotein NP311, QVYSLIRPNENPAHK]
- Solubility of unmodified peptide epitope [1]: hydrophilic

Compound: SIIVFNLL [Dpagt1, SIIVFNLL]
- Solubility of unmodified peptide epitope [1]: hydrophobic
- water solubility (in words) [1]: poorly soluble

Compound: TAYRYHLL [Trp1m, TAYRYHLL]
- Solubility of unmodified peptide epitope [1]: hydrophilic

Compound: Trp2168-195: longer Trp2 peptide containing sequences flanking the target epitope 180-188; positive control
- CD8+ T cell response, fold weaker compared to D3G3-Trp2 [3]: ~20 fold

Compound: lipopolysaccharide [LPS]
- expression of CD80, CD86, MHC I, and MHC II compared to vehicle control [4]: increased expression
